Data taken from article PMC8246065 (The EMBO Journal, 2021).

How the values were obtained:
[1] = test system: NOD1 and NOD2; test: Immunoprecipitation with lipid-coated beads; type: binding, human; conditions: HeLa NOD1-GFP / NOD2-GFP lysates, room temperature 2 h
Procedure: HeLa NOD1 or NOD2 cells were grown overnight and afterward treated with doxycycline overnight to induce NOD1 or NOD2 expression. Cells of one 10‐cm dish were lysed with 500 µl of lysis buffer (25 mM Tris–HCl, pH 7.5, 150 mM NaCl, 1 mM EDTA, 1% NP‐40, and 5% glycerol) supplemented with protease inhibitors (Roche, 05892791001) on ice for 20 min. Lysates were centrifuged at 16,000 × g at 4°C for 10 min, and supernatants were mixed with GFP‐Trap agarose (ChromoTek GmbH, gta‐20) overnight at 4°C. Afterward, agaroses were washed twice with PBS and boiled with sample buffer for SDS–PAGE. For lipid‐coated beads IP, lipid‐coated beads were incubated with supernatants for 2 h at room temperature and then washed with lysis buffer for three times and boiled with sample buffer for SDS–PAGE.

[2] = test system: BMDMs; test: Il6 expression and multiplex cytokine production in WT, Nod1/2 KO and Rip2 KO BMDMs; type: cell-based, mice; conditions: S1P 10 µM with digitonin (2.5 µg/ml); WT vs Nod1/2 KO and Rip2 KO
Procedure: The human monocytic cell line THP‐1 was obtained from the American Type Culture Collection (ATCC, TIB‐202) and maintained in RPMI 1640 (Gibco, 31870) with 10% (v:v) heat‐inactivated fetal bovine serum (FBS, Sigma‐Aldrich, F0804), 1 mM sodium pyruvate (Gibco, 11360070), 2 mM L‐glutamine (Gibco, 25030081), 10 mM HEPES buffer (Gibco, 15630080), pH 7.2‐7.5, and 50 µM 2‐mercaptoethanol (Gibco, 31350010). To differentiate THP‐1 into macrophage‐like cells, THP‐1 cells were stimulated with 50 ng/ml phorbol 12‐myristate 13‐acetate (Sigma‐Aldrich, P8139) for 24 h and then incubated with fresh medium for another 48 h. HEK293T WT and HEK293T NOD1/2 dKO cells were generated as described (Dagil et al, 2016). […]
Total RNA was isolated with TRIzol reagent, as described by the manufacturer (Invitrogen). […] Gene expression was normalized to glyceraldehyde‐3‐phosphate dehydrogenase (GAPDH), and fold changes were calculated against corresponding controls. qRT–PCR data were representative of at least three independent experiments, with at least 2 technical replicates per experiment. […]

CCCCCCCCCCCCC/C=C/[C@@H](O)[C@@H](N)COP(=O)(O)O [S1P, sphingosine‐1‐phosphate]
Immunoprecipitation of NOD1 and NOD2 with lipid-coated beads [1]: specifically immunoprecipitated | Il6 expression and production of IL6, CXCL2, CCL5 and IL16 [2]: markedly impaired in Nod1/2 KO and Rip2 KO BMDMs
